Test results taken from patent US4178449A, “Pyrazolo[1,5-a]pyrimidines and imidazo-[1,5-a]pyrimidines” (American Cyanamid Company, priority 1978, dated 1979).

Tests used:
[1] = system: conflict situation (shocks taken) in Wistar strain rats; experiment: non-conditioned passive avoidance (conflict) procedure; format: in vivo, rat; set-up: key: Active: The test compounds are considered active if the shocks received by the test group are significantly different from the control group by the Mann-Whitney U test; conditions: oral or intraperitoneal, single or graded doses, tested at 30 or 60 minutes, 5 minute interval
Description: Another test which has been used to assess anti-anxiety effect is a non-conditioned passive avoidance procedure described by J. R. Vogel, B. Beer and D. E. Clody, "A Simple and Reliable Conflict Procedure for Testing Anti-Anxiety Agents", Psychopharmacologia, 21, 1-7 (1971). A conflict situation is induced in rats by a modification of this method. Groups of 6 naive, Wistar strain rats, weighing 200-240 g. each were deprived of water for 48 hours and food for 24 hours. The test compounds were administered in single or graded, oral or intraperitoneal doses suspended in a 2% starch vehicle containing 0.5% v/v polyethylene glycol and one drop of Polysorbate 80. Control animals received the vehicle alone. At 30 or 60 minutes each rat was placed in individual black plexiglass chambers. A 10% dextrose solution was available ad libitum from a tap located in the rear of the chamber. A 0.3 milliampere constant current 60 Hz pulsed DC shocking current was established between the stainless steel grid floor and the tap. After 20 seconds of non-shocked drinking, an alternating 5 second "shock-on" and 5 second "shock-off" cycle began and continued for a total of 5 minutes. The number of shocks taken by each rat during the 5 minute interval was recorded and compared to a control group. […]

[2] = system: 3H-diazepam binding to the brain receptors (rat frontal cortex P2-synaptosomal fraction); experiment: inhibition of 3H-diazepam binding to brain receptors; set-up: key: Active: A compound which exhibits the ability to inhibit binding by ≥20% is considered to be active; conditions: 3H-diazepam (1.5 mM.), 20 minutes in ice
Description: Another test used to measure anxiolytic activity comprises measurement of the ability of test compounds to inhibit the binding of ^3 H-diazepam to the brain receptors of warm-blooded animals. The test is described by R. F. Squires in Nature, 266, No. 21 page 732 (April 1977) and H. Mohler and T. Okada, Science, 198, 849 (1977). A modification of this test was employed wherein the animals used were male albino rats of the Wistar strain, weighing 150-200 g. each from Royalhart Farms. Diazepam (methyl-^3 H) was obtained from New England Nuclear. The test compounds were solubilized in either dimethylformamide, acetic acid, ethanol or hydrochloric acid. Frontal cortex of rats was homogenized gently in 20 volumes of ice-cold 0.32 M. sucrose, centrifuged twice at 1000 g. for 10 minutes and then recentrifuged at 30,000 g. for 20 minutes to produce a crude P2 -synaptosomal fraction. The P2 -fraction was resuspended, twice the original volume, in hypotonic 50 mM. Tris.HCl (pH 7.4). The binding assay consisted of 300 μl. of the P2 -fraction suspension (0.350 mg.), 100 μl. of test drug and 100 μl. of ^3 H-diazepam ([…].),. which was added to 1.5 ml. of 50 mM. Tris.HCl (pH 7.4). Non-specific binding controls and total binding controls received 100 μl. of diazepam (3 μm.) and 100 μl. of deionized water, respectively, in place of the test compound. Incubation for 20 minutes proceeded in ice and was terminated by filtration, under vacuum, through Whatman GF/C glass fiber filters. The filters were washed twice with 5 ml. of ice-cold 50 mM. Tris.HCl (pH 7.4) and placed in scintillation vials. After drying at 50°-60° C. for 30 minutes, 10 ml. of Beckman Ready-Solve HP was added and the radioactivity determined in a Beckman Scintillation Counter. The percentage of inhibition of diazepam binding is calculated for each compound. […] Representative compounds of the present invention which were active when tested by the diazepam binding assay are set forth in Table III below.

[3] = system: pentylenetetrazole clonic seizures in rats; experiment: protection from convulsions resulting from the administration of pentylenetetrazole; format: in vivo, rat; set-up: key: Active: The test compounds are considered active if they protect 50% or more of the rats from clonic seizures; conditions: oral or intraperitoneal, single or graded doses, pentylenetetrazole 21 to 23 mg./kg. i.v. at 30 or 60 minutes
Description: The anti-anxiety properties of the novel compounds of the present invention have been established in a test which indicates anxiolytic activity by the measure of protection from convulsions resulting from the administration of pentylenetetrazole. Single or graded dose levels of the test compounds were administered orally or intraperitoneally in a 2% starch vehicle, to groups of at least 4 rats. At 30 or 60 minutes, the rats were treated intravenously with pentylenetetrazole at a dose of 21 to 23 mg./kg. of body weight. This dose is estimated to cause clonic seizures in 99% of unprotected rats. The test compounds are considered active if they protect 50% or more of the rats from clonic seizures. It has been reported [R. T. Hill and D. H. Tedeschi, "Animal Testing and Screening Procedures in Evaluating Psychotropic Drugs" in "An Introduction to Psychopharmacology", Eds. R. R. Rech and K. E. Moore, Raven Press, New York, pp. 237-288 (1971)] that there is a high degree of correlation between antagonism of pentylenetetrazole seizures in rats and anti-anxietyeffects in higher warm-blooded animals.

SMILES	Result (number of shocks taken vs control, conflict procedure) [1]	Result (inhibition of 3H-diazepam binding) [2]	Result (protection from pentylenetetrazole clonic seizures) [3]
c1ccc(-c2ccnc3ccnn23)cc1 [Example 1, 7-Phenylpyrazolo[1,5-a]pyrimidine]	Active	Active	
N#Cc1cnn2c(-c3cccc(C(F)(F)F)c3)ccnc12 [Example 3, 7-(α,α,α-Trifluoro-m-tolyl)pyrazolo[1,5-a]pyrimidine-3-carbonitrile]	Active	Active	Active
Cc1nn2c(-c3cccc(C(F)(F)F)c3)ccnc2c1C#N [Example 11, 2-Methyl-7-(α,α,α-trifluoro-m-tolyl)pyrazolo[1,5-a]pyrimidine-3-carbonitrile]	Active	Active	Active
FC(F)(F)c1cccc(-c2ccnc3ccnn23)c1 [Example 12, 7-(α,α,α-Trifluoro-m-tolyl)pyrazolo[1,5-a]pyrimidine]		Active	Active
FC(F)(F)c1cccc(-c2ccnc3c(Cl)cnn23)c1 [Example 14, 3-Chloro-7-(α,α,α-trifluoro-m-tolyl)pyrazolo[1,5-a]pyrimidine]		Active	Active
FC(F)(F)c1cccc(-c2ccnc3c(Br)cnn23)c1 [Example 15, 3-Bromo-7-(α,α,α-trifluoro-m-tolyl)pyrazolo[1,5-a]pyrimidine]		Active	Active
CCOC(=O)c1cnn2c(-c3cccc(C(F)(F)F)c3)ccnc12 [Example 16, 7-(α,α,α-Trifluoro-m-tolyl)pyrazolo[1,5-a]pyrimidine-3-carboxylic acid ethyl ester]	Active	Active	Active
N#Cc1c(C(N)=O)nn2c(-c3cccc(C(F)(F)F)c3)ccnc12 [Example 19, 3-Cyano-7-(α,α,α-trifluoro-m-tolyl)pyrazolo[1,5-a]pyrimidine-2-carboxamide]		Active	Active
N#Cc1cnn2c(-c3ccccc3C(F)(F)F)ccnc12 [Example 21, 7-(α,α,α-Trifluoro-o-tolyl)pyrazolo[1,5-a]pyrimidine-3-carbonitrile]	Active		
Cc1cnc2c(C#N)cnn2c1-c1cccc(C(F)(F)F)c1 [Example 23, 6-Methyl-7-(α,α,α-trifluoro-m-tolyl)pyrazolo-[1,5-a]pyrimidine-3-carbonitrile]		Active	Active
Cc1cnc2ccnn2c1-c1cccc(C(F)(F)F)c1 [Example 24, 6-Methyl-7-(α,α,α-trifluoro-m-tolyl)pyrazolo[1,5-a]pyrimidine]	Active	Active	
Cc1cnc2c(Cl)cnn2c1-c1cccc(C(F)(F)F)c1 [Example 25, 3-Chloro-6-methyl-7-(α,α,α-trifluoro-m-tolyl)pyrazolo[1,5-a]pyrimidine]	Active	Active	
COc1cccc(-c2ccnc3c(C#N)cnn23)c1 [Example 27, 7-(m-Methoxyphenyl)pyrazolo[1,5-a]pyrimidine-3-carbonitrile]		Active	Active
N#Cc1ncn2c(-c3cccc(C(F)(F)F)c3)ccnc12 [Example 29, 4-(α,α,α-Trifluoro-m-tolyl)imidazo[1,5-a]pyrimidine-8-carbonitrile]	Active	Active	Active
O=Cc1cnn2c(-c3cccc(C(F)(F)F)c3)ccnc12 [Example 48, 7-(α,α,α-Trifluoro-m-tolyl)pyrazolo[1,5-a]pyrimidine-3-carboxaldehyde]			Active
ON=Cc1cnn2c(-c3cccc(C(F)(F)F)c3)ccnc12 [Example 49, 7-(α,α,α-Trifluoro-m-tolyl)pyrazolo[1,5-a]pyrimidine-3-carboxaldehyde, oxime]			Active
CC(=O)c1cnn2c(-c3cccc(C(F)(F)F)c3)ccnc12 [Example 54, Methyl 7-(α,α,α-trifluoro-m-tolyl)pyrazolo[1,5-a]pyrimid-3-yl ketone]			Active
CCOC(=O)c1ncn2c(-c3cccc(C(F)(F)F)c3)ccnc12 [Example 56, Ethyl 4-(α,α,α-trifluoro-m-tolyl)imidazolo[1,5-a]pyrimidine-8-carboxylate]			Active
CCOC(=O)c1cnn2c(-c3ccc(OC)c(OC)c3)ccnc12 [Example 59, Ethyl 7-(3,4-dimethoxyphenyl)pyrazolo[1,5-a]pyrimidine-3-carboxylate]			Active
CCOC(=O)c1cnn2c(-c3ccc(CC)cc3)ccnc12 [Example 61, Ethyl 7-(p-ethylphenyl)pyrazolo[1,5-a]pyrimidine-3-carboxylate]			Active
CCOC(=O)c1cnn2c(-c3ccc(C)c(C)c3)ccnc12 [Example 63, Ethyl 7-(3,4-xylyl)pyrazolo[1,5-a]pyrimidine-3-carboxylate]			Active
FC(F)(F)c1cccc(-c2ccn3nccc3n2)c1 [Example 66, 5-(α,α,α-Trifluoro-m-tolyl)pyrazolo[1,5-a]pyrimidine]			Active
c1ccc(-c2ccn3nccc3n2)cc1 [Example 67, 5-Phenylpyrazolo[1,5-a]pyrimidine]			Active
N#Cc1cnn2c(-c3cccc(F)c3)ccnc12 [Example 76, 7-(m-Fluorophenyl)pyrazolo[1,5-a]pyrimidine-3-carbonitrile]			Active
CCOC(=O)c1cnn2c(-c3cccc(C)c3)ccnc12 [Example 77, Ethyl 7-(m-tolyl)pyrazolo[1,5-a]pyrimidine-3-carboxylate]			Active
CN(C)CCOC(=O)c1cnn2c(-c3cccc(C(F)(F)F)c3)ccnc12 [Example 79, 2-Dimethylaminoethyl 7-(α,α,α-trifluoro-m-tolyl)pyrazolo[1,5-a]-pyrimidine-3-carboxylate]			Active
COCc1cnn2c(-c3cccc(C(F)(F)F)c3)ccnc12 [Example 80, 3-(Methoxymethyl)-7-(α,α,α-trifluoro-m-tolyl)pyrazolo[1,5-a]-pyrimidine]			Active
